Values belong to the molecule of their own block, whether it stands above or below them.
Experiments:
EAAT2 [1] = biological target: T1, EAAT2 (Homo sapiens, UniProt P43004); experiment: Dose-response glutamate uptake in COS-7 cells transfected with EAAT2; type: cell-based; conditions: for kind of modulation of EAAT2 glutamate uptake in dose-response assays: COS-7 cells expressing EAAT2
T1 construct: expressed in transfected cells; host or cells: COS-7
Text: (§1) COS-7 cells were maintained in DMEM with 10% fetal calf serum under 5% CO2. Transfection with empty vector pCMV-5 was used to control for the level of endogenous uptake of radiolabeled substrate in each experimental condition. The specificity of the effect of the compounds was investigated in COS-7 cells transiently transfected with glutamate transporter subtypes EAAT1-3 and monoamine transporters hNET (human noradrenaline transporter), hDAT (dopamine transporter), and hSERT (serotonin transporter).
(§2) For glutamate uptake assays, subconfluent COS-7 cells were transfected with 0.5 μg of plasmid DNA per well using TransIT-LT1 transfection reagent (Mirus Bio LLC, Madison, Wis.) and plated at a density of ˜100 000 cells per well in 24-well tissue culture plates. For monoamine uptake assays, cells were transfected 0.1 μg of DNA per well as above and plated at a density of 10 000 cells per well in 96-wells plates.
Uptake reactions were initiated by the addition of 50 nM ^3H-L-glutamate, serotonin, dopamine, or noradrenaline, as appropriate.
(§3) All reactions were carried out for 10 min; then, uptake was terminated by removal of solution, followed by two washes with PBSCM. Cells in 24-well plates were lysed with 1% SDS/0.1 M NaOH. Lysate was transferred to scintillation vials containing 3 mL of scintillation fluid, and radioactivity was quantified in an LS 6500 scintillation counter (Beckman Coulter, Brea, Calif.). For 96-well plates, scintillation fluid was added to each well, and the plate was counted in a Wallac M50 microbeta scintillation analyzer.

EAAT1 = biological target: T2, EAAT1 (Homo sapiens, UniProt P43003); experiment: Dose-response glutamate uptake in COS-7 cells transfected with EAAT1; type: cell-based
T2 construct: expressed in transfected cells; host or cells: COS-7
Text: as §1, §2
[…]. […]
as §3, with “Cells in 24-well plates were lysed with 1% SDS/0.1 M NaOH.” left out

EAAT3 = biological target: T3, EAAT3 (Homo sapiens, UniProt P43005); experiment: Dose-response glutamate uptake in COS-7 cells transfected with EAAT3; type: cell-based
T3 construct: expressed in transfected cells; host or cells: COS-7
T3 sequence (P43005 1-524): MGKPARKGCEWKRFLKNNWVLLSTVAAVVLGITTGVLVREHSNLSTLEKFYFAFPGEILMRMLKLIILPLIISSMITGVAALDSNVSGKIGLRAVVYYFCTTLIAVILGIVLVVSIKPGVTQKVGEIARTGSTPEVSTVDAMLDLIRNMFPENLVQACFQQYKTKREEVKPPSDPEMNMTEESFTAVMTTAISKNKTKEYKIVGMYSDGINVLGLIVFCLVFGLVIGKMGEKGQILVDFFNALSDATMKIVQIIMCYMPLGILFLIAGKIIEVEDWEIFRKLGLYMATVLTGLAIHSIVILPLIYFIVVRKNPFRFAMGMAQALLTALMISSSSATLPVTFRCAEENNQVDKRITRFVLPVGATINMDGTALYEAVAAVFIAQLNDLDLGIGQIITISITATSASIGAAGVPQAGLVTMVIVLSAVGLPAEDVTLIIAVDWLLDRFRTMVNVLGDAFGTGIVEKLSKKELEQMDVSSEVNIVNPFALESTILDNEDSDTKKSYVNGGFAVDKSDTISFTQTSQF
Text: as §1, §2
[…]. […]
as §3, with “Cells in 24-well plates were lysed with 1% SDS/0.1 M NaOH.” left out

cultured astrocytes = experiment: Glutamate uptake in cultured astrocytes; type: cell-based, rat
Description: Glia was prepared and cultured according to Shimizu, et al., 2011, J. Visualized Exp. e3257 with modifications. Briefly, cerebral cortices from 2-4 day old Holtzman rat pups were dissected under sterile conditions and placed in 60 mm dishes containing dissection medium (in mM: 16 glucose, 22 sucrose, 135 NaCl, 5 KCl, 1 Na2HPO4, 0.22 KH2PO4, 10 HEPES, pH 7.4, Osmolarity 310+10 mOsm). Tissue was minced with curved scissors and digested in 0.25% trypsin for 15 min. Trypsin activity was ended by transferring tissue pieces to another vial with dissection medium. Tissue was then repeatedly passed through a serological plastic pipette until it was dissociated by trituration in the presence of 60 μg/mL DNase. Cells were pelleted by centrifugation for 15 min at 280 g and resuspended in glia plating medium (90% DMEM, 10% FBS, and 50 μg/mL gentamicin) and transferred to culture flasks kept in a 37° C. incubator (5-10% CO2). After growth for 10 days in vitro (DIV), cells were detached with 0.05% trypsin, centrifuged, and plated at a density of 10 000 cells/well in polylysine-coated 96-well plates. Plates were grown for 14 DIV before uptake assays were performed.
Assays were performed as described (Timple, et al., 2013, J. Nat. Prod. 76:1889-1895). Briefly, using an Elx50 Biotek plate washer (Winooski, Vt., USA), cells were washed in PBS-CM buffer. For dose-response assays, vehicle and several concentrations of the compounds (0.01 nM to 1 μM) were added and incubated for 10 min at 37° C. Uptake assays were initiated by addition of 50 nM L-[^3H]-glutamate, and incubation was carried on for 10 min at room temperature. Nonspecific uptake was obtained in the presence of 10 μM DL-TBOA.
Reactions were finished by washing the plates twice with PBS-CM and the addition of 100 μL of scintillation fluid to each well. Radioactivity was counted in a microplate scintillation and luminescence counter (Wallac, Shelton, Conn., USA).

NMDA receptors = experiment: NMDA-induced calcium response, calcium imaging in cultured cortical neurons; type: cell-based, mouse; conditions: 100 μM NMDA with 3 μM glycine, no Mg2+; AP-V at 40 μM
Description: To determine whether the compounds have effects on the function of NMDA receptors, calcium imaging recordings from cultured cortical neurons were performed as described previously (Nicolai, et al., 2010, Cell Death Dis. 1:e33).
Primary cortical neurons were obtained from the cerebral cortex of neonatal (P1 or P2) C57BL/6 mice, plated at a density of 3000 cells/12 mm round coverslip, and cultured in medium containing Neurobasal A, fetal calf serum (2%), heat-inactivated horse serum (2%), L-glutamax-1 (0.2 mM), and B-27 supplement (2%). Cells were maintained at 37° C. in a humidified atmosphere containing 5% CO2. The calcium imaging experiments were conducted on DIV 1.
Recordings were performed in living neurons, as described (Xia, et al., 2014, J. Physiol. 592:3443-3461). Briefly, cultured neurons were loaded with a Fura-2 calcium dye in Tyrode's solution containing (in mM) 140 NaCl, 5 KCl, 2 CaCl2, 1 MgCl2, 10 HEPES, and 5.6 glucose. Coverslips were mounted in the imaging chamber (model RC-25, Warner Instruments, Hamden, Conn.) and continuously perfused with Tyrode's solution containing 0.5 μM tetrodotoxin. Images were acquired in 3 s intervals at room temperature (20-22° C.) using an Olympus inverted microscope equipped with a CCD camera (Hamamatsu ORCA-03G, Japan). The fluorescence ratio was determined as the fluorescence intensities excited at 340 and 380 nm with background subtracted. 100 μM NMDA was applied in the presence of 3 μM glycine and in the absence of Mg^2+. The NMDA receptor antagonist AP-V (40 μM) was applied to certify that the result was specifically the NMDA-induced calcium response. Vehicle, GT949, or GT951 was applied, and calcium changes were recorded.
Recordings were performed in living neurons, as described (Xia, et al., 2014, J. Physiol. 592:3443-3461). Briefly, cultured neurons were loaded with Fura-2 calcium dye in Hank's balanced salt solution (HBSS). 100 μM NMDA was applied in the presence of 3 μM glycine and in the absence of Mg^2+. […] Vehicle, GT949, or GT951 was applied, and calcium currents were recorded.

EAAT2 [2] = biological target: T1, EAAT2; experiment: Kinetic assay of L-glutamate uptake in EAAT2-transfected COS-7 cells; type: cell-based; conditions: GT949 and GT951 pre-incubated at 1 nM
Text: as §1, §2
as §3, with “Cells in 24-well plates were lysed with 1% SDS/0.1 M NaOH.” left out

T1 sequence (P43004 whole entry): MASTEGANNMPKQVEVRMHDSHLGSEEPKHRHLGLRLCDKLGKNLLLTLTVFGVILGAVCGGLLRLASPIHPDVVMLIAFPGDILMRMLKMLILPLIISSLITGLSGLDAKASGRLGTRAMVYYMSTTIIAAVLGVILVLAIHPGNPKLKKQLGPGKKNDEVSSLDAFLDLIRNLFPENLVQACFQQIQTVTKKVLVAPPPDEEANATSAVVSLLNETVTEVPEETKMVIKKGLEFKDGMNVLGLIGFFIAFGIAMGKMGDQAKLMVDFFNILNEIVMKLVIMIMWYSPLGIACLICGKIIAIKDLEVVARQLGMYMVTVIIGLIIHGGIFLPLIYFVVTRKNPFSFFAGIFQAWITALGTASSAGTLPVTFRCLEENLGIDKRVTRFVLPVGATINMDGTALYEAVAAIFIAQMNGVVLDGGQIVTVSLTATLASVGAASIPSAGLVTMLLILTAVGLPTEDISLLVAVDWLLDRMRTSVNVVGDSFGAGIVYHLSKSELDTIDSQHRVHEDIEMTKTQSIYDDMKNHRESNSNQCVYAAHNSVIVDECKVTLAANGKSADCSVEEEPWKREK
T2 sequence (P43003 whole entry): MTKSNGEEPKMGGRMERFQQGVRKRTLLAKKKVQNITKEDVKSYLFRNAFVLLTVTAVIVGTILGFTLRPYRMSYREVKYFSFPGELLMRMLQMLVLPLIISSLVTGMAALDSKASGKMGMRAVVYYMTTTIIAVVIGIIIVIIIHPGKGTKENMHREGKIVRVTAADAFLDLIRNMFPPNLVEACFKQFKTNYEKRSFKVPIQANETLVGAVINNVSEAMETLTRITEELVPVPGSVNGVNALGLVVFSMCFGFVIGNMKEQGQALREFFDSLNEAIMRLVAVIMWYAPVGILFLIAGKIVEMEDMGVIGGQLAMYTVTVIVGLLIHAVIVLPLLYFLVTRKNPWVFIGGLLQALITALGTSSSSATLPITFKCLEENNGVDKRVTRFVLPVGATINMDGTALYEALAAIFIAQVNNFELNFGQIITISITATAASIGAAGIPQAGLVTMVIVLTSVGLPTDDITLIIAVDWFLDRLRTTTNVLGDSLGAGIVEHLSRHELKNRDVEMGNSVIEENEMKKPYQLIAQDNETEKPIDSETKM

kind of modulation of EAAT2 glutamate uptake in dose-response assays (EAAT2 [1]): inhibitors
Structure (SMILES): C=CCN1CC(c2nc3ccccc3n2CCCCOc2ccc(C)c(C)c2)CC1=O (stereo not drawn) [GT938, 1-allyl-4-(1-(4-(3,4-dimethylphenoxy)butyl)-1H-benzo[d]imidazol-2-yl)pyrrolidin-2-one]

kind of modulation of EAAT2 glutamate uptake in dose-response assays (EAAT2 [1]): inhibitors
Structure (SMILES): C=CCN1CC(c2nc3ccccc3n2CCCOc2ccc(C(C)CC)cc2)CC1=O (stereo not drawn) [GT922, 1-allyl-4-(1-(3-(4-(sec-butyl)phenoxy)propyl)-1H-benzo[d]imidazol-2-yl)pyrrolidin-2-one]

effect on EAAT1-mediated glutamate transport (EAAT1): no effect | effect on EAAT3-mediated glutamate transport (EAAT3): no effect | EC50 (cultured astrocytes; Rattus norvegicus, Astrocyte, cultured rat astrocytes, 50 nM 3H-L-glutamate, read-out: potency (EC50) of glutamate uptake enhancement in cultured astrocytes): 0.3 ± 0.2 nM
Structure (SMILES): COc1ccc2[nH]c(=O)c(C(c3nnnn3CCc3ccccc3)N3CCN(c4cccc(C(F)(F)F)c4)CC3)cc2c1 (stereo not drawn) [GT951, 6-methoxy-3-((1-phenethyl-1H-tetrazol-5-yl)(4-(3-(trifluoromethyl)phenyl)piperazin-1-yl)methyl)quinolin-2(1H)-one]
efficacy of augmentation of glutamate transport in cultured astrocytes (cultured astrocytes; cultured rat astrocytes): ~27% | effect on NMDA-induced calcium response (NMDA receptors): no effects

Structure (SMILES): Cc1cc(C)c2cc(C(c3nnnn3CCc3ccccc3)N3CCN(C(=O)c4ccco4)CC3)c(=O)[nH]c2c1 (stereo not drawn) [GT996, 3-((4-(furan-2-carbonyl)piperazin-1-yl)(1-phenethyl-1H-tetrazol-5-yl)methyl)-5,7-dimethylquinolin-2(1H)-one]
modulation of glutamate transport in cultured astrocytes (cultured astrocytes; cultured rat astrocytes, negative control): inactive

Structure (SMILES): COc1ccc(C2C(C#N)=C(N)OC3=C2C(=O)CC(c2cccc4ccccc24)C3)cc1 (stereo not drawn) [UCPH-101, 2-Amino-5,6,7,8-tetrahydro-4-(4-methoxyphenyl)-7-(naphthalen-1-yl)-5-oxo-4H-chromene-3-carbonitrile, reference compound]
inhibition of glutamate uptake in cultured glial cells by selective EAAT inhibitors (cultured astrocytes; 50 nM 3H-L-glutamate): partial inhibition

kind of modulation of EAAT2 glutamate uptake in dose-response assays (EAAT2 [1]): no effect
Structure (SMILES): Cc1ccc(C)c2[nH]c(=O)c(C(c3nnnn3CCc3ccccc3)N3CCN(Cc4ccc5c(c4)OCO5)CC3)cc12 (stereo not drawn) [GT867, 3-((4-(benzo[d][1,3]dioxol-5-ylmethyl)piperazin-1-yl)(1-phenethyl-1H-tetrazol-5-yl)methyl)-5,8-dimethylquinolin-2(1H)-one]

effect on NMDA-induced calcium response (NMDA receptors): drastically attenuated
Structure (SMILES): NC(CCCP(=O)(O)O)C(=O)O (racemic) [AP-V, (DL)-2-amino-5-phosphonovaleric acid, reference compound]

kind of modulation of EAAT2 glutamate uptake in dose-response assays (EAAT2 [1]): PAMs | EC50 (EAAT2 [1]; COS-7 cells transfected with EAAT2, compound 10 min 37 °C, 50 nM 3H-L-glutamate, mean±SEM, read-out: EC50 (ED50) of enhancement of EAAT2-mediated glutamate transport): 0.7 ± 0.2 nM | effect on EAAT1-mediated glutamate transport (EAAT1): no effect | effect on EAAT3-mediated glutamate transport (EAAT3): no effect | effect on Vmax of transport (EAAT2 [2]): increased Vmax | effect on NMDA-induced calcium response (NMDA receptors): no effects
Structure (SMILES): C=CCN1CC(c2nc3ccccc3n2CCCCOc2ccc(Cl)c(C)c2)CC1=O (stereo not drawn) [GT939, 1-allyl-4-(1-(4-(4-chloro-3-methylphenoxy)butyl)-1H-benzo[d]imidazol-2-yl)pyrrolidin-2-one]

kind of modulation of EAAT2 glutamate uptake in dose-response assays (EAAT2 [1]): no effect
Structure (SMILES): O=C(c1ccc(S(=O)(=O)N2CCCC2)cc1)N1CCN(c2nc(-c3ccccc3)nc3sc4c(c23)CCC4)CC1 [GT988, (4-(2-phenyl-6,7-dihydro-5H-cyclopenta [4,5]thieno[2,3-d]pyrimidin-4-yl)piperazin-1-yl)(4-(pyrrolidin-1-ylsulfonyl)phenyl) methanone]

— patent US11377452B2, “Glutamate transporter activators and methods using same” (DREXEL UNIVERSITY, priority 2017, dated 2022)
